≈ marks a conversion by molar mass, not a printed value. Read-outs that look alike come from different tables or passages of the source.
Tests used:
S. aureus RN4220 = assay: microbe, parasite or virus in culture; type: cell-based; settings: for MIC: Staphylococcus aureus
S. aureus [1] = assay: microbe, parasite or virus in culture; type: cell-based; settings: for MIC: Staphylococcus aureus
[2] = system: staphylococci and streptococci; assay: organism not typed; type: cell-based
S. aureus [3] = type: cell-based
S. aureus [4] = assay: microbe, parasite or virus in culture; type: cell-based; settings: Staphylococcus aureus
staphylococci = settings: cited from earlier work
S. pneumoniae MetS2 = S. pneumoniae MetS2 (Streptococcus pneumoniae, UniProt A2MSJ4); assay: biochemical
Sequence of S. pneumoniae MetS2 (A2MSJ4 1-545): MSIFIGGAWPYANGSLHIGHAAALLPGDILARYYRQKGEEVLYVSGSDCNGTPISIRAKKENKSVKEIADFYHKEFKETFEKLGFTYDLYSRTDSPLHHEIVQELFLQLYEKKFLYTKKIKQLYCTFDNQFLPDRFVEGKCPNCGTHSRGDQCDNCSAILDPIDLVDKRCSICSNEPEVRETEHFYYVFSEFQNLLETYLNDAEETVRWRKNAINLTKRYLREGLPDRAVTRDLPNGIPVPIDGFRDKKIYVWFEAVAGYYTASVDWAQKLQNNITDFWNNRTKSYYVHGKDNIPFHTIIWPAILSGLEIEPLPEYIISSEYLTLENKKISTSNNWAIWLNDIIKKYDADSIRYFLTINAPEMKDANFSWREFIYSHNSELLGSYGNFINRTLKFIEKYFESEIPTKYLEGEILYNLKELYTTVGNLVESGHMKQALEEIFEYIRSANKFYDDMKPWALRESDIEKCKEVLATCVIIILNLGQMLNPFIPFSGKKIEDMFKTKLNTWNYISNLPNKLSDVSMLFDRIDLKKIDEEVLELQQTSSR

E. coli MetG = E. coli MetG (Escherichia coli, UniProt P00959); assay: biochemical
Sequence of E. coli MetG (P00959 whole entry, looked up): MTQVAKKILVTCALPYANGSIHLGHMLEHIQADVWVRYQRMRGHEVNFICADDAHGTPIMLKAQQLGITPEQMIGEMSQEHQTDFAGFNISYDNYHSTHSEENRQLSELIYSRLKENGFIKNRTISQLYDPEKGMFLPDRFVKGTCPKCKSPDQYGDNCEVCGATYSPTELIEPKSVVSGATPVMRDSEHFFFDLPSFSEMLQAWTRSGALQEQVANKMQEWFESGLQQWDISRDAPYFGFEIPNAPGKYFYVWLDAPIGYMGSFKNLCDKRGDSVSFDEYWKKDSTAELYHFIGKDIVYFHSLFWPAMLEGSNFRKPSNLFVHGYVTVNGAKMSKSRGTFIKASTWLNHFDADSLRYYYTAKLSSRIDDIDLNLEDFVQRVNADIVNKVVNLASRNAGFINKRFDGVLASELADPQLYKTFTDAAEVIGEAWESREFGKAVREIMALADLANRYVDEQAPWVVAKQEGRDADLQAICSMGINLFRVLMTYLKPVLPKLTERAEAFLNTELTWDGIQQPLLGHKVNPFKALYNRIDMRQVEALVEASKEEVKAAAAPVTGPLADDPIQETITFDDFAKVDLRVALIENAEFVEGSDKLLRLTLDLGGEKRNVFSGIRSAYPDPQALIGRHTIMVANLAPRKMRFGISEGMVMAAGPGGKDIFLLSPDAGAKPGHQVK

S. aureus MetS = S. aureus MetS (Staphylococcus aureus, UniProt P67579); assay: biochemical
Sequence of S. aureus MetS (P67579 whole entry): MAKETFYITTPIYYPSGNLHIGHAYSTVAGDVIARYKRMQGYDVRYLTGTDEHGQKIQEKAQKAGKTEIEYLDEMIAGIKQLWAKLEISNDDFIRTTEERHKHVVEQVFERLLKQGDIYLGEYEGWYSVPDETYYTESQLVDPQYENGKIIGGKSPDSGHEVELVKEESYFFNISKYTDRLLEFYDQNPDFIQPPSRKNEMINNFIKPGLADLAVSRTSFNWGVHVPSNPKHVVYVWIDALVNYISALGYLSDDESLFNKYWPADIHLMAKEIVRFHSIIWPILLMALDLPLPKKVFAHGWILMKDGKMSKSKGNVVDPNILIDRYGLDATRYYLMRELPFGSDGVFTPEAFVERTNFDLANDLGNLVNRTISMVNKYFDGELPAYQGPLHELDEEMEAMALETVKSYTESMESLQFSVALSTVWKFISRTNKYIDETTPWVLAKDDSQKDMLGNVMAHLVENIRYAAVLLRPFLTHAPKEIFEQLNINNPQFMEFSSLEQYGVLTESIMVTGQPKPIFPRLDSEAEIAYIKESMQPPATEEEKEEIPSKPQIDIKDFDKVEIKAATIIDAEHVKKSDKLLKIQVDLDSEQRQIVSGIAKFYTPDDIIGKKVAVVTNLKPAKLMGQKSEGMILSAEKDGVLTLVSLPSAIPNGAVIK

S. aureus mutants = assay: microbe, parasite or virus in culture; type: cell-based; settings: Staphylococcus aureus, ATCC43300
H influenzae MetG = H influenzae MetG (Haemophilus influenzae, UniProt P43828); assay: biochemical
Sequence of H influenzae MetG (P43828 whole entry): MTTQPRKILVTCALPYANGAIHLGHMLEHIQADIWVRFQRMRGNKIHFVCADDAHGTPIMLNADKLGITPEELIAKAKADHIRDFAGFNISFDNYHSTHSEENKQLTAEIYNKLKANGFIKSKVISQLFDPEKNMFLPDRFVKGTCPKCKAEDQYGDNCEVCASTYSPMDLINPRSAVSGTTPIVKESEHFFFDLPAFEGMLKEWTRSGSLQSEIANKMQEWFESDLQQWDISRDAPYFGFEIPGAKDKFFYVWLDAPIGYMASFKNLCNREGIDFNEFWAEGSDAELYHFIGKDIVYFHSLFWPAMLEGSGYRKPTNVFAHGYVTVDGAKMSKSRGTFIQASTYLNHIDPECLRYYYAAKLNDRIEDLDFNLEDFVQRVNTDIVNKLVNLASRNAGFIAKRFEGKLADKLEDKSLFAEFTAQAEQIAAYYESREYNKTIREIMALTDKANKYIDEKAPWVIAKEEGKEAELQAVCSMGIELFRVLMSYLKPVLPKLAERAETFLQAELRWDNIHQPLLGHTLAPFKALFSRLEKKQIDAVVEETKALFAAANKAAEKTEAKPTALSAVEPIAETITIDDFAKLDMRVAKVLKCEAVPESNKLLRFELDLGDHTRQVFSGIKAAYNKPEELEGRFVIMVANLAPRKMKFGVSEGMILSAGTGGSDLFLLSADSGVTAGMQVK

[5] = RN4220, pYH4 vector control, +aTc inducer
[6] = RN4220, pYH4 vector control, −aTc inducer
[7] = 1079077 (MRSA), 10^10 CFU, five days
[8] = ATCC 29213 (MSSA), 10^10 CFU, five days
[9] = ATCC 43300 (MRSA), 10^10 CFU, five days
[10] = LZ10 (MRSA), 10^10 CFU, five days
[11] = S. aureus, including MSSA and MRSA strains
[12] = ATCC 29213 / MSSA, read-out: MIC After 20 passages, S. aureus ATCC29213, MSSA, MupS
[13] = ATCC 29213 / MSSA, read-out: MIC Initial, S. aureus ATCC29213, MSSA, MupS
[14] = ATCC 43300 / MRSA, read-out: MIC After 20 passages, S. aureus ATCC43300, MRSA, MupS
[15] = MRSA / NRS 103, read-out: MIC After 20 passages, S. aureus NRS103, MRSA, MupS
[16] = MRSA / NRS 103, read-out: MIC Initial, S. aureus NRS103, MRSA, MupS
[17] = MRSA, read-out: MIC After 20 passages, S. aureus 10-420, MRSA, HL-MupR
[18] = MRSA, read-out: MIC After 20 passages, S. aureus 25-670, MRSA, HL-MupR
[19] = MRSA, read-out: MIC After 20 passages, S. aureus 31-1334, MRSA, LL-MupR
[20] = MRSA, read-out: MIC After 20 passages, S. aureus 87-2797, MRSA, HL-MupR
[21] = MRSA, read-out: MIC After 20 passages, S. aureus 1079077, MRSA, MupS
[22] = MRSA, read-out: MIC After 20 passages, S. aureus LZ1, MRSA, HL-MupR
[23] = MRSA, read-out: MIC After 20 passages, S. aureus LZ6, MRSA, HL-MupR
[24] = MRSA, read-out: MIC After 20 passages, S. aureus LZ10, MRSA, MupS
[25] = MRSA, read-out: MIC Initial, S. aureus 10-420, MRSA, HL-MupR
[26] = MRSA, read-out: MIC Initial, S. aureus 25-670, MRSA, HL-MupR
[27] = MRSA, read-out: MIC Initial, S. aureus 31-1334, MRSA, LL-MupR
[28] = MRSA, read-out: MIC Initial, S. aureus 87-2797, MRSA, HL-MupR
[29] = MRSA, read-out: MIC Initial, S. aureus 1079077, MRSA, MupS
[30] = MRSA, read-out: MIC Initial, S. aureus LZ1, MRSA, HL-MupR
[31] = MRSA, read-out: MIC Initial, S. aureus LZ6, MRSA, HL-MupR
[32] = MRSA, read-out: MIC Initial, S. aureus LZ10, MRSA, MupS
[33] = MSSA / NRS 107, read-out: MIC After 20 passages, S. aureus NRS107, MSSA, HL-MupR
[34] = MSSA / NRS 107, read-out: MIC Initial, S. aureus NRS107, MSSA, HL-MupR
[35] = MSSA, read-out: MIC After 20 passages, S. aureus 1079101, MSSA, HL-MupR
[36] = MSSA, read-out: MIC Initial, S. aureus 1079101, MSSA, HL-MupR

CO[C@@H]1[C@@H](OC(N)=O)[C@@H](O)[C@H](Oc2ccc3c(O)c(NC(=O)c4ccc(O)c(CC=C(C)C)c4)c(=O)oc3c2C)OC1(C)C [Novobiocin]
MIC change upon MRS overexpression (S. aureus RN4220): remained unchanged
MIC (S. aureus RN4220; RN4220, pYH4-MRS, +aTc inducer): 0.25 µg/mL (≈ 0.408 µM)
MIC (S. aureus RN4220; RN4220, pYH4-MRS, −aTc inducer): 0.25 µg/mL (≈ 0.408 µM)
MIC (S. aureus RN4220; [5]): 0.25 µg/mL (≈ 0.408 µM)
MIC (S. aureus RN4220; [6]): 0.25 µg/mL (≈ 0.408 µM)

CN[C@H](CC(C)C)C(=O)N[C@H]1C(=O)N[C@@H](CC(N)=O)C(=O)N[C@H]2C(=O)N[C@H]3C(=O)N[C@H](C(=O)N[C@H](C(=O)O)c4cc(O)cc(O)c4-c4cc3ccc4O)[C@H](O)c3ccc(c(Cl)c3)Oc3cc2cc(c3O[C@@H]2O[C@H](CO)[C@@H](O)[C@H](O)[C@H]2O[C@H]2C[C@](C)(N)[C@H](O)[C@H](C)O2)Oc2ccc(cc2Cl)[C@H]1O [Vancomycin]
MIC change upon MRS overexpression (S. aureus RN4220): remained unchanged
MIC (S. aureus RN4220; RN4220, pYH4-MRS, +aTc inducer): 0.5 µg/mL (≈ 0.345 µM)
MIC (S. aureus RN4220; RN4220, pYH4-MRS, −aTc inducer): 0.5 µg/mL (≈ 0.345 µM)
MIC (S. aureus RN4220; [5]): 1 µg/mL (≈ 0.69 µM)
MIC (S. aureus RN4220; [6]): 1 µg/mL (≈ 0.69 µM)

C/C(=C\C(=O)OCCCCCCCCC(=O)O)C[C@@H]1OC[C@H](C[C@@H]2O[C@H]2[C@@H](C)[C@H](C)O)[C@@H](O)[C@H]1O [Mupirocin]
MIC (S. aureus [1]; ATCC 29213 / MSSA): 0.12 µg/mL (≈ 0.24 µM)
MIC (S. aureus [1]; ATCC 43300 / MRSA): 0.12 µg/mL (≈ 0.24 µM)
MIC range after 20 passages ([2]; mupirocin-susceptible strains): 0.5 to 8 µg/mL
MIC range initial ([2]; mupirocin-susceptible strains): 0.06 to 0.5 µg/mL
MIC ([2]; read-out: MIC after 20 passages): 128 µg/mL (≈ 256 µM)
MIC ([2]; read-out: MIC initial): 32 µg/mL (≈ 63.9 µM)
MPC (S. aureus [3]; [7]): >32 µg/mL
MPC (S. aureus [3]; [8]): 32 µg/mL
MPC (S. aureus [3]; [9]): 32 µg/mL
MPC (S. aureus [3]; [10]): >32 µg/mL
MPC (S. aureus [3]; [11]): ≥ 32 µg/mL
MIC (S. aureus [4]; [12]): 0.5 µg/mL (≈ 0.999 µM)
MIC (S. aureus [4]; [13]): 0.06 µg/mL (≈ 0.12 µM)
MIC (S. aureus [4]; [14]): 8 µg/mL (≈ 16 µM)
MIC (S. aureus [4]; ATCC 43300 / MRSA, read-out: MIC Initial, S. aureus ATCC43300, MRSA, MupS): 0.06 µg/mL (≈ 0.12 µM)
MIC (S. aureus [4]; [15]): 1 µg/mL (≈ 2 µM)
MIC (S. aureus [4]; [16]): 0.25 µg/mL (≈ 0.499 µM)
MIC (S. aureus [4]; [17]): 4100 µg/mL (≈ 8180 µM)
MIC (S. aureus [4]; [18]): 4100 µg/mL (≈ 8180 µM)
MIC (S. aureus [4]; [19]): 128 µg/mL (≈ 256 µM)
MIC (S. aureus [4]; [20]): 4100 µg/mL (≈ 8180 µM)
MIC (S. aureus [4]; [21]): 1 µg/mL (≈ 2 µM)
MIC (S. aureus [4]; [22]): 4100 µg/mL (≈ 8180 µM)
MIC (S. aureus [4]; [23]): 4100 µg/mL (≈ 8180 µM)
MIC (S. aureus [4]; [24]): 2 µg/mL (≈ 3.99 µM)
MIC (S. aureus [4]; [25]): 4100 µg/mL (≈ 8180 µM)
MIC (S. aureus [4]; [26]): 2050 µg/mL (≈ 4090 µM)
MIC (S. aureus [4]; [27]): 32 µg/mL (≈ 63.9 µM)
MIC (S. aureus [4]; [28]): 2050 µg/mL (≈ 4090 µM)
MIC (S. aureus [4]; [29]): 0.5 µg/mL (≈ 0.999 µM)
MIC (S. aureus [4]; [30]): 4100 µg/mL (≈ 8180 µM)
MIC (S. aureus [4]; [31]): 4100 µg/mL (≈ 8180 µM)
MIC (S. aureus [4]; [32]): 0.25 µg/mL (≈ 0.499 µM)
MIC (S. aureus [4]; [33]): 4100 µg/mL (≈ 8180 µM)
MIC (S. aureus [4]; [34]): 4100 µg/mL (≈ 8180 µM)
MIC (S. aureus [4]; [35]): 4100 µg/mL (≈ 8180 µM)
MIC (S. aureus [4]; [36]): 4100 µg/mL (≈ 8180 µM)
MIC change upon MRS overexpression (S. aureus RN4220): remained unchanged
MIC (S. aureus RN4220; RN4220, pYH4-MRS, +aTc inducer): 0.06 µg/mL (≈ 0.12 µM)
MIC (S. aureus RN4220; RN4220, pYH4-MRS, −aTc inducer): 0.06 µg/mL (≈ 0.12 µM)
MIC (S. aureus RN4220; [5]): 0.06 µg/mL (≈ 0.12 µM)
MIC (S. aureus RN4220; [6]): 0.06 µg/mL (≈ 0.12 µM)
MIC (staphylococci; high-level mupirocin resistance): > 256 µg/mL
MIC (staphylococci; low-level mupirocin resistance): 8 to 256 µg/mL

C=C(F)c1sc(CNCCCNc2cc(=O)c3ccccc3[nH]2)c(C)c1Br [Compound 1, N-(4-bromo-5-(1-fluorovinyl)-3-methylthiophen-2-ylmethyl)-N′-(1H-quinolin-4-one)propane-1,3-diamine]
IC50 (S. pneumoniae MetS2): > 500 nM
initial MIC range (S. aureus [1]): 0.03 to 0.5 µg/mL
MIC (S. aureus [1]): 0.5 µg/mL (≈ 1.11 µM)
MIC (S. aureus [1]; ATCC 29213 / MSSA): 0.03 µg/mL (≈ 0.0666 µM)
MIC (S. aureus [1]; ATCC 43300 / MRSA): 0.06 µg/mL (≈ 0.133 µM)
MIC range after twenty serial passages ([2]; strains of Table 4): 0.06 to 16 µg/mL
MIC initial range ([2]; strains of Table 4, before passages): 0.015 to 0.06 µg/mL
IC50 (E. coli MetG): 307 nM
MPC (S. aureus [3]; [7]): 32 µg/mL
MPC (S. aureus [3]; [8]): 32 µg/mL
MPC (S. aureus [3]; [9]): 32 µg/mL
MPC (S. aureus [3]; [10]): 32 µg/mL
MPC (S. aureus [3]; [11]): 32 µg/mL
IC50 (S. aureus MetS): < 1.9 nM
MIC (S. aureus mutants): 2 µg/mL (≈ 4.44 µM)
MIC (S. aureus [4]; [12]): 4 µg/mL (≈ 8.88 µM)
MIC (S. aureus [4]; [13]): 0.06 µg/mL (≈ 0.133 µM)
MIC (S. aureus [4]; [14]): 1 µg/mL (≈ 2.22 µM)
MIC (S. aureus [4]; [15]): 1 µg/mL (≈ 2.22 µM)
MIC (S. aureus [4]; [16]): 0.12 µg/mL (≈ 0.266 µM)
MIC (S. aureus [4]; [17]): 8 µg/mL (≈ 17.8 µM)
MIC (S. aureus [4]; [18]): 8 µg/mL (≈ 17.8 µM)
MIC (S. aureus [4]; [19]): 8 µg/mL (≈ 17.8 µM)
MIC (S. aureus [4]; [20]): 16 µg/mL (≈ 35.5 µM)
MIC (S. aureus [4]; [21]): 16 µg/mL (≈ 35.5 µM)
MIC (S. aureus [4]; [22]): 0.06 µg/mL (≈ 0.133 µM)
MIC (S. aureus [4]; [23]): 2 µg/mL (≈ 4.44 µM)
MIC (S. aureus [4]; [24]): 0.5 µg/mL (≈ 1.11 µM)
MIC (S. aureus [4]; [25]): 0.06 µg/mL (≈ 0.133 µM)
MIC (S. aureus [4]; [26]): 0.06 µg/mL (≈ 0.133 µM)
MIC (S. aureus [4]; [27]): 0.03 µg/mL (≈ 0.0666 µM)
MIC (S. aureus [4]; [28]): 0.03 µg/mL (≈ 0.0666 µM)
MIC (S. aureus [4]; [29]): 0.25 µg/mL (≈ 0.555 µM)
MIC (S. aureus [4]; [30]): 0.06 µg/mL (≈ 0.133 µM)
MIC (S. aureus [4]; [31]): 0.06 µg/mL (≈ 0.133 µM)
MIC (S. aureus [4]; [32]): 0.03 µg/mL (≈ 0.0666 µM)
MIC (S. aureus [4]; [33]): 0.5 µg/mL (≈ 1.11 µM)
MIC (S. aureus [4]; [34]): 0.015 µg/mL (≈ 0.0333 µM)
MIC (S. aureus [4]; [35]): 16 µg/mL (≈ 35.5 µM)
MIC (S. aureus [4]; [36]): 0.06 µg/mL (≈ 0.133 µM)
IC50 (H influenzae MetG): 25 nM
shift in the MIC upon induction of MRS expression (S. aureus RN4220; RN4220 (pYH4-MRS)): 8 fold
MIC (S. aureus RN4220; RN4220, pYH4-MRS, +aTc inducer): 1 µg/mL (≈ 2.22 µM)
MIC (S. aureus RN4220; RN4220, pYH4-MRS, −aTc inducer): 0.12 µg/mL (≈ 0.266 µM)
MIC (S. aureus RN4220; [5]): 0.008 µg/mL (≈ 0.0178 µM)
MIC (S. aureus RN4220; [6]): 0.008 µg/mL (≈ 0.0178 µM)

Source: patent US20080138835A1 (priority 2004, published 2008)
